Patent publication US6737383B1, “Herbicidal oxadiazolidines” (priority 1999, dated 2004)

What was measured:
[1] = tested on: morningglory; assay: Test B pre/postemergence morningglory; assay type: in vivo, Ipomoea hederacea
Method in brief: (§1)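 Response is a visual 0-to-10 score relative to untreated plants, where 0 means no effect and 10 means complete control, taken twelve to sixteen days after application. Treatments went onto soil at planting and onto foliage of 1- to 4-leaf plants, using a surfactant-containing non-phytotoxic solvent.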

[2] = tested on: pigweed; assay: Test B pre/postemergence pigweed; assay type: in vivo, Amaranthus retroflexus
Method in brief: as §1

[3] = tested on: crabgrass; assay: Test B pre/postemergence crabgrass; assay type: in vivo, Digitaria sanguinalis
Method in brief: as §1

[4] = tested on: velvetleaf; assay: Test B pre/postemergence velvetleaf; assay type: in vivo, Abutilon theophrasti
Method in brief: as §1

[5] = tested on: bedstraw; assay: Test B pre/postemergence bedstraw; assay type: in vivo, Galium aparine
Method in brief: as §1

[6] = tested on: surinam grass; assay: Test B pre/postemergence surinam grass; assay type: in vivo, Brachiaria decumbens
Method in brief: as §1

[7] = tested on: sugar beet; assay: Test B pre/postemergence sugar beet; assay type: in vivo, Beta vulgaris
Method in brief: as §1

[8] = tested on: corn; assay: Test B pre/postemergence corn; assay type: in vivo, Zea mays
Method in brief: as §1

[9] = tested on: cocklebur; assay: Test B pre/postemergence cocklebur; assay type: in vivo, Xanthium strumarium
Method in brief: as §1

[10] = tested on: blackgrass; assay: Test B pre/postemergence blackgrass; assay type: in vivo, Alopecurus myosuroides
Method in brief: as §1

[11] = tested on: soybean; assay: Test B pre/postemergence soybean; assay type: in vivo, Glycine max
Method in brief: as §1

[12] = tested on: wheat; assay: Test B pre/postemergence wheat; assay type: in vivo, Triticum aestivum
Method in brief: as §1

[13] = tested on: purple nutsedge; assay: Test B pre/postemergence purple nutsedge; assay type: in vivo, Cyperus rotundus
Method in brief: as §1

[14] = tested on: wild oat; assay: Test B pre/postemergence wild oat; assay type: in vivo, Avena fatua
Method in brief: as §1

[15] = tested on: giant foxtail; assay: Test B pre/postemergence giant foxtail; assay type: in vivo, Setaria faberii
Method in brief: as §1

[16] = tested on: rape; assay: Test B pre/postemergence rape; assay type: in vivo, Brassica napus
Method in brief: as §1

[17] = Postemergence, Rate 62 g/ha, scale of 0 to 10, 0 is no effect, 10 is complete control
[18] = Postemergence, Rate 125 g/ha, scale 0 to 10, 0 is no effect, 10 is complete control
[19] = Postemergence, Rate 500 g/ha, scale 0 to 10, 0 is no effect, 10 is complete control
[20] = Preemergence, Rate 62 g/ha, scale of 0 to 10 where 0 is no effect and 10 is complete control
[21] = Preemergence, Rate 125 g/ha, scale 0 to 10, 0 is no effect, 10 is complete control
[22] = Preemergence, Rate 500 g/ha, scale of 0 to 10 where 0 is no effect and 10 is complete control
[23] = Postemergence, Rate 250 g/ha, scale 0 to 10
[24] = Preemergence, Rate 250 g/ha, scale 0 to 10, 0 is no effect, 10 is complete control
[25] = Preemergence, Rate 500 g/ha, scale 0 to 10, 0 is no effect, 10 is complete control
[26] = Preemergence, Rate 62 g/ha, scale 0 to 10 (0 no effect, 10 complete control)
[27] = Rate 250 g/ha, Postemergence, scale of 0 to 10 where 0 is no effect and 10 is complete control

CC(C)=CCn1c(=O)on(C(=O)N(c2ccc(F)cc2F)C(C)C)c1=O [Compound 515]
Morningglory plant response rating [1, 17]: 2
Morningglory plant response rating [1, 18]: 2
Plant response rating, Morningglory [1, 19]: 6
Plant response rating, Morningglory [1, 20]: 0
Morningglory plant response rating [1, 21]: 0
Morningglory plant response rating [1, 22]: 0
Redroot pigweed plant response rating [2, 17]: 3
Redroot pigweed plant response rating [2, 18]: 4
Plant response rating, Redroot pigweed [2, 19]: 5
Plant response rating, Redroot pigweed [2, 20]: 8
Redroot pigweed plant response rating [2, 21]: 9
Redroot pigweed plant response rating [2, 22]: 10
Crabgrass plant response rating [3, 17]: 4
Crabgrass plant response rating [3, 18]: 8
Crabgrass plant response rating [3, 23]: 9
Plant response rating, Crabgrass [3, 19]: 9
Plant response rating, Crabgrass [3, 20]: 6
Crabgrass plant response rating [3, 21]: 7
Crabgrass plant response rating [3, 22]: 9
Velvetleaf plant response rating [4, 17]: 2
Velvetleaf plant response rating [4, 18]: 4
Plant response rating, Velvetleaf [4, 19]: 8
Plant response rating, Velvetleaf [4, 20]: 0
Velvetleaf plant response rating [4, 21]: 0
Velvetleaf plant response rating [4, 22]: 6
Bedstraw plant response rating [5, 17]: 6
Bedstraw plant response rating [5, 18]: 6
Plant response rating, Bedstraw [5, 20]: 0
Bedstraw plant response rating [5, 21]: 0
Bedstraw plant response rating [5, 24]: 0
Bedstraw plant response rating [5, 25]: 3
B. signalgrass plant response rating [6, 17]: 0
B. signalgrass plant response rating [6, 18]: 0
B. signalgrass plant response rating ([6]; Postemergence, Rate 250 g/ha, scale 0 to 10, 0 no effect, 10 complete control): 0
Plant response rating, B. signalgrass [6, 19]: 3
Plant response rating, B. signalgrass [6, 20]: 2
B. signalgrass plant response rating [6, 21]: 8
B. signalgrass plant response rating [6, 24]: 8
B. signalgrass plant response rating [6, 25]: 9
Sugarbeets plant response rating [7, 17]: 3
Sugarbeets plant response rating [7, 18]: 3
Plant response rating, Sugarbeets [7, 19]: 3
Plant response rating, Sugarbeets [7, 20]: 0
Sugarbeets plant response rating [7, 21]: 4
Sugarbeets plant response rating [7, 22]: 7
Corn plant response rating [8, 17]: 0
Corn plant response rating [8, 18]: 0
Corn plant response rating [8, 23]: 0
Plant response rating, Corn [8, 19]: 0
Plant response rating, Corn [8, 20]: 0
Corn plant response rating [8, 21]: 0
Corn plant response rating [8, 22]: 5
Cocklebur plant response rating [9, 17]: 0
Cocklebur plant response rating [9, 18]: 3
Cocklebur plant response rating [9, 23]: 3
Plant response rating, Cocklebur [9, 19]: 5
Plant response rating, Cocklebur [9, 20]: 0
Cocklebur plant response rating [9, 21]: 0
Cocklebur plant response rating [9, 24]: 0
Cocklebur plant response rating [9, 22]: 0
Blackgrass plant response rating [10, 17]: 0
Blackgrass plant response rating [10, 18]: 0
Blackgrass plant response rating [10, 23]: 0
Plant response rating, Blackgrass [10, 19]: 1
Plant response rating, Blackgrass [10, 20]: 3
Blackgrass plant response rating [10, 21]: 5
Blackgrass plant response rating [10, 24]: 5
Blackgrass plant response rating [10, 22]: 8
Soybean plant response rating [11, 17]: 4
Soybean plant response rating [11, 18]: 4
Plant response rating, Soybean [11, 19]: 7
Plant response rating, Soybean [11, 20]: 0
Soybean plant response rating [11, 21]: 0
Soybean plant response rating [11, 22]: 0
Wheat plant response rating [12, 17]: 0
Wheat plant response rating [12, 18]: 0
Plant response rating, Wheat [12, 19]: 0
Plant response rating, Wheat [12, 20]: 0
Wheat plant response rating [12, 21]: 0
Wheat plant response rating [12, 22]: 7
Nutsedge plant response rating [13, 17]: 0
Nutsedge plant response rating [13, 18]: 0
Plant response rating, Nutsedge [13, 19]: 0
Plant response rating, Nutsedge [13, 20]: 0
Nutsedge plant response rating [13, 21]: 0
Nutsedge plant response rating [13, 22]: 0
Wild oats plant response rating [14, 17]: 0
Wild oats plant response rating [14, 18]: 0
Plant response rating, Wild oats [14, 19]: 0
Plant response rating, Wild oats [14, 20]: 3
Wild oats plant response rating [14, 21]: 5
Wild oats plant response rating [14, 22]: 9
Giant foxtail plant response rating [15, 17]: 8
Giant foxtail plant response rating [15, 18]: 9
Plant response rating, Giant foxtail [15, 19]: 9
Plant response rating, Giant foxtail [15, 20]: 10
Giant foxtail plant response rating [15, 21]: 10
Giant foxtail plant response rating [15, 22]: 10
Rape plant response rating [16, 17]: 4
Rape plant response rating [16, 18]: 4
Plant response rating, Rape [16, 19]: 6
Plant response rating, Rape [16, 20]: 0
Rape plant response rating [16, 21]: 4
Rape plant response rating [16, 22]: 10

CCOCn1c(=O)on(C(=O)N(c2ccc(Cl)cc2)C(C)C)c1=O [Compound 534]
Morningglory plant response rating [1, 17]: 2
Morningglory plant response rating [1, 18]: 2
Plant response rating, Morningglory [1, 19]: 3
Morningglory plant response rating [1, 26]: 0
Morningglory plant response rating [1, 21]: 0
Morningglory plant response rating (0 to 10 scale) ([1]; Preemergence, Rate 250 g/ha): 2
Morningglory plant response rating [1, 22]: 0
Plant response rating, Morningglory [1, 27]: 2
Redroot pigweed plant response rating [2, 17]: 0
Redroot pigweed plant response rating [2, 18]: 3
Plant response rating, Redroot pigweed [2, 19]: 7
Redroot pigweed plant response rating [2, 26]: 0
Redroot pigweed plant response rating [2, 21]: 0
Redroot pigweed plant response rating (0 to 10 scale) ([2]; Preemergence, Rate 250 g/ha): 0
Plant response rating, Redroot pigweed [2, 27]: 3
Crabgrass plant response rating [3, 18]: 5
Plant response rating, Crabgrass [3, 19]: 8
Crabgrass plant response rating [3, 26]: 9
Crabgrass plant response rating [3, 21]: 10
Crabgrass plant response rating (0 to 10 scale) ([3]; Preemergence, Rate 250 g/ha): 10
Crabgrass plant response rating [3, 22]: 10
Plant response rating, Crabgrass [3, 27]: 4
Velvetleaf plant response rating [4, 17]: 0
Velvetleaf plant response rating [4, 18]: 2
Plant response rating, Velvetleaf [4, 19]: 2
Velvetleaf plant response rating [4, 26]: 0
Velvetleaf plant response rating [4, 21]: 2
Velvetleaf plant response rating (0 to 10 scale) ([4]; Preemergence, Rate 250 g/ha): 2
Velvetleaf plant response rating [4, 22]: 3
Plant response rating, Velvetleaf [4, 27]: 2
Bedstraw plant response rating [5, 26]: 0
Bedstraw plant response rating [5, 21]: 0
Bedstraw plant response rating (0 to 10 scale) ([5]; Preemergence, Rate 250 g/ha): 0
B. signalgrass plant response rating [6, 17]: 0
B. signalgrass plant response rating [6, 18]: 0
Plant response rating, B. signalgrass [6, 19]: 6
B. signalgrass plant response rating [6, 26]: 9
B. signalgrass plant response rating [6, 21]: 9
B. signalgrass plant response rating (0 to 10 scale, 0 is no effect, 10 is complete control) ([6]; Preemergence, Rate 250 g/ha): 9
Plant response rating, B. signalgrass [6, 27]: 0
Sugarbeets plant response rating [7, 17]: 0
Sugarbeets plant response rating [7, 18]: 0
Plant response rating, Sugarbeets [7, 19]: 2
Sugarbeets plant response rating [7, 26]: 3
Sugarbeets plant response rating [7, 21]: 4
Sugarbeets plant response rating (0 to 10 scale) ([7]; Preemergence, Rate 250 g/ha): 6
Plant response rating, Sugarbeets [7, 27]: 3
Corn plant response rating [8, 17]: 0
Corn plant response rating [8, 18]: 0
Plant response rating, Corn [8, 19]: 0
Corn plant response rating [8, 26]: 0
Corn plant response rating [8, 21]: 0
Corn plant response rating (0 to 10 scale) ([8]; Preemergence, Rate 250 g/ha): 3
Corn plant response rating [8, 22]: 3
Plant response rating, Corn [8, 27]: 0
Cocklebur plant response rating [9, 17]: 0
Cocklebur plant response rating [9, 18]: 0
Plant response rating, Cocklebur [9, 19]: 0
Cocklebur plant response rating [9, 26]: 0
Cocklebur plant response rating [9, 21]: 0
Cocklebur plant response rating (0 to 10 scale) ([9]; Preemergence, Rate 250 g/ha): 0
Cocklebur plant response rating [9, 22]: 0
Plant response rating, Cocklebur [9, 27]: 0
Blackgrass plant response rating [10, 17]: 0
Blackgrass plant response rating [10, 18]: 2
Plant response rating, Blackgrass [10, 19]: 7
Blackgrass plant response rating [10, 26]: 8
Blackgrass plant response rating [10, 21]: 9
Blackgrass plant response rating (0 to 10 scale) ([10]; Preemergence, Rate 250 g/ha): 9
Plant response rating, Blackgrass [10, 27]: 7
Soybean plant response rating [11, 18]: 4
Plant response rating, Soybean [11, 19]: 7
Soybean plant response rating [11, 26]: 0
Soybean plant response rating [11, 21]: 0
Soybean plant response rating (0 to 10 scale) ([11]; Preemergence, Rate 250 g/ha): 0
Plant response rating, Soybean [11, 27]: 6
Wheat plant response rating [12, 17]: 0
Wheat plant response rating [12, 18]: 0
Plant response rating, Wheat [12, 19]: 5
Wheat plant response rating [12, 26]: 0
Wheat plant response rating [12, 21]: 0
Wheat plant response rating (0 to 10 scale) ([12]; Preemergence, Rate 250 g/ha): 3
Plant response rating, Wheat [12, 27]: 3
Nutsedge plant response rating [13, 17]: 0
Nutsedge plant response rating [13, 18]: 2
Plant response rating, Nutsedge [13, 19]: 2
Nutsedge plant response rating [13, 26]: 0
Nutsedge plant response rating [13, 21]: 0
Plant response rating, Nutsedge [13, 27]: 2
Wild oats plant response rating [14, 17]: 0
Wild oats plant response rating [14, 18]: 0
Plant response rating, Wild oats [14, 19]: 3
Wild oats plant response rating [14, 26]: 3
Wild oats plant response rating [14, 21]: 8
Wild oats plant response rating (0 to 10 scale) ([14]; Preemergence, Rate 250 g/ha): 9
Plant response rating, Wild oats [14, 27]: 0
Giant foxtail plant response rating [15, 18]: 3
Plant response rating, Giant foxtail [15, 19]: 8
Giant foxtail plant response rating [15, 26]: 9
Giant foxtail plant response rating [15, 21]: 9
Giant foxtail plant response rating (0 to 10 scale) ([15]; Preemergence, Rate 250 g/ha): 10
Giant foxtail plant response rating [15, 22]: 10
Plant response rating, Giant foxtail [15, 27]: 4
Rape plant response rating [16, 17]: 0
Rape plant response rating [16, 18]: 0
Plant response rating, Rape [16, 19]: 7
Rape plant response rating [16, 26]: 2
Rape plant response rating [16, 21]: 6
Rape plant response rating (0 to 10 scale) ([16]; Preemergence, Rate 250 g/ha): 6
Plant response rating, Rape [16, 27]: 0
